# Test results taken from patent publication US20260098026A1, “M4 ACTIVATORS/MODULATORS AND USES THEREOF” (Cerevel Therapeutics, LLC, priority 2022, published 2026).
# Legend:
# M4 mAChR = target: T1, M4 mAChR (Homo sapiens, UniProt P08173); assay: cAMP TR-FRET assay with forskolin, M4-overexpressing CHO-K1 cells; assay type: cell-based
# T1 construct: expressed in transfected cells; host or cells: CHO-K1
# T1 sequence (P08173 1-479): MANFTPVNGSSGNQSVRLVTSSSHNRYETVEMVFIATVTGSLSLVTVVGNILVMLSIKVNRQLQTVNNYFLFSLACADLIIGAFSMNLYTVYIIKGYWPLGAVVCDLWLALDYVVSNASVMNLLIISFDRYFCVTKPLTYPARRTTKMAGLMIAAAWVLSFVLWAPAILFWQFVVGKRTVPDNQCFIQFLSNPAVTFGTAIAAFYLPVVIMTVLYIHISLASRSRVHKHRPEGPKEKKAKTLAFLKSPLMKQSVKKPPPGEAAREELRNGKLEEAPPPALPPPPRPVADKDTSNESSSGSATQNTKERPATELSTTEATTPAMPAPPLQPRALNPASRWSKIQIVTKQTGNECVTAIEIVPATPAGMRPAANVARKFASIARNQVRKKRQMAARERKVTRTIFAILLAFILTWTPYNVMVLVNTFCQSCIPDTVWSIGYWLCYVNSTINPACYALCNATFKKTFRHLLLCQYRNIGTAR
# Source text: The M2 and M4 mACh receptors are Gi-coupled receptors which, upon activation, produce a decrease in cAMP. Assays were developed that measured the potency and efficacy of compounds at the M2 or M4 mAChR using M2- or M4-overexpressing CHO-K1 cell lines. Time-resolved fluorescence resonance energy transfer (TR-FRET) technology was used, where signal occurs as a result of transfer of energy if the donor molecule is in close proximity to an acceptor molecule when the molecules have bound to the molecule of interest. The cAMP detection is a competition binding assay, where cAMP produced by cells competes for binding with the labeled donor molecule to the anti-cAMP acceptor antibody. Due to the low basal levels of cAMP in the CHO-K1 cell line, forskolin was used to increase cAMP levels to enable assessment of agonist activity at the mAChR of interest.
# [1] = target: T2, M3 muscarinic acetylcholine receptor (mAChR) (Homo sapiens, UniProt P20309); assay: FLIPR calcium assay (Fluo 8), M3-overexpressing CHO-K1 cells; assay type: cell-based
# T2 construct: expressed in transfected cells; host or cells: CHO-K1
# Protocol: Stimulation of a Gq-coupled G-protein coupled receptors (GPCRs), result in an efflux of calcium from the endoplasmic reticulum to the cytoplasm (Berridge, 1993), thus rendering this assay appropriate for the assessment of M1, M3 and M5 receptors. CHO-K1 cells overexpressing the M1, M3, or M5 muscarinic acetylcholine receptor (mAChR) were dispensed at 15,000 cells per well in 30 μl volume to 384-well plates and grown overnight at 37° C. in a 5% CO2 atmosphere. Fluo-8 Solution, 10 μl per well, was added to each well and incubated for 30 minutes at 37° C. in a 5% CO2 atmosphere. Compounds diluted in Hanks' balanced salt solution (HBSS) were transferred to the cell assay plate at 10 μl per well, and then read on a FLIPR instrument. EC50 and Emax figures were calculated from the resulting data for each receptor subtype.
# T2 sequence (P20309 whole entry): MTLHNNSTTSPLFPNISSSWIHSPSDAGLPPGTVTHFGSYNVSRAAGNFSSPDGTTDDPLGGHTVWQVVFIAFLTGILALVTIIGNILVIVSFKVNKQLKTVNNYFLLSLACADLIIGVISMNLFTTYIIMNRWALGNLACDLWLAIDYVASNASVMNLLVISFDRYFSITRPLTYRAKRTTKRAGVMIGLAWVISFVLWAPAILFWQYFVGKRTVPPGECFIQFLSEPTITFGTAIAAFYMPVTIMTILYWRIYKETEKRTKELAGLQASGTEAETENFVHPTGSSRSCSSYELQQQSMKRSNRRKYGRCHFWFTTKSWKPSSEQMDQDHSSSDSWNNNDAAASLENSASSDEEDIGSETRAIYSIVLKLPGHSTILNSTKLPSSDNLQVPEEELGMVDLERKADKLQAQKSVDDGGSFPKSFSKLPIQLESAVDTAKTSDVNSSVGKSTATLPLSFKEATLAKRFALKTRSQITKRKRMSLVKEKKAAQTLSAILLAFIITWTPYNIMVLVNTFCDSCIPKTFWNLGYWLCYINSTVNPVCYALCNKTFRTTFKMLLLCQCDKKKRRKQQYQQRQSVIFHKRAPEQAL
Emax (M4 mAChR; cAMP assay) [%],SMILES,further results
80 to 100,CCOC(=O)N1CC2(CC[C@@H](N3CCN(c4cc(F)cnc4-c4ccns4)CC3)C2)C1 [Compound A213],–
80 to 100,CCOC(=O)N1CC2(CC[C@@H](N3CCN(c4cc(F)cnc4-c4cnsc4)CC3)C2)C1 [Compound A214],–
80 to 100,CCOC(=O)N1CC2(CC[C@@H](N3CCN(c4cc(F)cnc4-c4nncs4)CC3)C2)C1 [Compound A236],–
19 to 49.9,CCOC(=O)N1CC2(CC[C@@H](N3CCN(c4cc(F)cnc4-c4nccnc4OC)CC3)C2)C1 [Compound A238],–
80 to 100,CCOC(=O)N1CC2(CC[C@@H](N3CCN(c4cc(Cl)cnc4-c4cnc(C)cn4)CC3)C2)C1 [Compound A239],–
80 to 100,CCOC(=O)N1CC2(CC[C@@H](N3CCN(c4cc(F)cnc4-c4ncc(F)cc4F)CC3)C2)C1 [Compound A240],–
50 to 79.9,CCOC(=O)N1CC2(CC[C@@H](N3CCN(c4cc(F)cnc4-c4ccc(C)nn4)CC3)C2)C1 [Compound A241],–
80 to 100,CCOC(=O)N1CC2(CC[C@@H](N3CCN(c4cc(F)cnc4-c4cccnn4)CC3)C2)C1 [Compound A242],–
80 to 100,CCOC(=O)N1CC2(CC[C@@H](N3CCN(c4cc(F)cnc4-c4ncc(C)s4)CC3)C2)C1 [Compound A266],–
50 to 79.9,CCOC(=O)N1CC2(CC[C@@H](N3CCN(c4cc(F)cnc4-c4nc(C)cs4)CC3)C2)C1 [Compound A267],–
80 to 100,CCOC(=O)N1CC2(CC[C@@H](N3CCN(c4cc(F)cnc4-c4ccsn4)CC3)C2)C1 [Compound A270],–
80 to 100,CCOC(=O)N1CC2(CC[C@@H](N3CCN(c4cc(F)cnc4-c4nccs4)CC3)C2)C1 [Compound A286],–
80 to 100,CCOC(=O)N1CC2(CC[C@@H](N3CCN(c4cc(F)cnc4-c4ncccc4Cl)CC3)C2)C1 [Compound A287],–

# Further lines, the molecule ahead of its results:
SMILES,Emax (M4 mAChR; cAMP assay) [%],further results
"CCOC(=O)N1CC2(CC[C@@H](N3CCC(c4cc(F)cnc4-c4cnccn4)CC3)C2)C1 (single isomer, unassigned) [Compound A11]",–,Emax (M4 mAChR; cAMP TR-FRET with forskolin): 80 to 100%
"CCOC(=O)N1CC2(CC[C@H](N3CCC(c4cc(F)cnc4-c4cnccn4)CC3)C2)C1 (single isomer, unassigned) [Compound A12]",–,Emax (M4 mAChR; cAMP TR-FRET with forskolin): 80 to 100%
"CCOC(=O)N1CC2(CC[C@@H](N3CCC(O)(c4cc(F)cnc4-c4cnccn4)CC3)C2)C1 (single isomer, unassigned) [Compound A14]",–,Emax (M4 mAChR; cAMP TR-FRET with forskolin): 80 to 100%
"CCOC(=O)N1CC2(CC[C@H](N3CCN(c4cc(Cl)cnc4C4CCOCC4)CC3)C2)C1 (single isomer, unassigned) [Compound A16]",–,EC50 ([1]; FLIPR calcium): > 10 µM
"CCOC(=O)N1CC2(CC[C@@H](N3CCN(c4cc(F)cnc4C4(F)CCOCC4)CC3)C2)C1 (single isomer, unassigned) [Compound A19]",–,Emax (M4 mAChR; cAMP TR-FRET with forskolin): 80 to 100%
"CCOC(=O)N1CC2(CC[C@H](N3CCC(c4cc(F)cnc4-c4nncs4)CC3)C2)C1 (single isomer, unassigned) [Compound A21]",–,Emax (M4 mAChR; cAMP TR-FRET with forskolin): 80 to 100%
"CCOC(=O)N1CC2(CC[C@@H](N3CCC(c4cc(F)cnc4-c4nncs4)CC3)C2)C1 (single isomer, unassigned) [Compound A22]",–,Emax (M4 mAChR; cAMP TR-FRET with forskolin): 80 to 100%
"CCOC(=O)N1CC2(CC[C@@H](N3CCC(c4cc(F)cnc4-n4cc(C)nn4)CC3)C2)C1 (single isomer, unassigned) [Compound A23]",–,Emax (M4 mAChR; cAMP TR-FRET with forskolin): 80 to 100%
"CCOC(=O)N1CC2(CC[C@H](N3CCC(c4cc(F)cnc4-n4cc(C)nn4)CC3)C2)C1 (single isomer, unassigned) [Compound A24]",–,Emax (M4 mAChR; cAMP TR-FRET with forskolin): 80 to 100%
"CCOC(=O)N1CC2(CC(N3[C@@H]4CC[C@H]3CN(c3cc(F)cnc3-c3cnccn3)C4)CS2)C1 (single isomer, unassigned) [Compound A220]",–,EC50 ([1]; FLIPR): > 10 µM
"CCOC(=O)N1CC2(CCC(N3[C@@H]4CC[C@H]3CN(c3cc(F)cnc3-c3cnccn3)C4)C2)C1 (single isomer, unassigned) [Compound A222]",–,EC50 ([1]; FLIPR): > 10 µM
"CCOC(=O)N1CC2(CC[C@@H](N3CCN(c4cc(F)cnc4C4CCOC4)CC3)C2)C1 (single isomer, unassigned) [Compound A281]",80 to 100,–
"CCOC(=O)N1CC2(CCC(N3CCN(c4cccnc4N4CCC4)CC3)C2)C1 (stereo not shown) [Compound A4, ethyl 6-(4-(2-(azetidin-1-yl)pyridin-3-yl)piperazin-1-yl)-2-azaspiro[3.4]octane-2-carboxylate]",–,Emax (M4 mAChR; cAMP TR-FRET with forskolin): 80 to 100%
"CCOC(=O)N1CC2(CC[C@@H](N3CCN(c4cccnc4OC4CCC4)CC3)C2)C1 [Compound A5, (R)-ethyl 6-(4-(2-cyclobutoxypyridin-3-yl)piperazin-1-yl)-2-azaspiro[3.4]octane-2-carboxylate]",–,EC50 ([1]; FLIPR calcium): > 10 µM
"CCOC(=O)N1CC2(CC[C@@H](N3CCN(c4cc(F)cnc4-c4cscn4)CC3)C2)C1 [Compound A8, ethyl (6R)-6-[4-(5-fluoro-2-thiazol-4-yl-3-pyridyl)piperazin-1-yl]-2-azaspiro[3.4]octane-2-carboxylate]",–,Emax (M4 mAChR; cAMP TR-FRET with forskolin): 80 to 100%
CCOC(=O)N1CC2(CC[C@@H](N3CCN(c4cccnc4-c4cncc(C#N)c4)CC3)C2)C1 [Compound A27],–,EC50 ([1]; FLIPR calcium): > 10 µM
CCOC(=O)N1CC2(CC[C@@H](N3CCN(c4cccnc4-c4cncc(OC(F)F)c4)CC3)C2)C1 [Compound A28],–,Emax (M4 mAChR; cAMP TR-FRET with forskolin): 80 to 100%

SMILES,Emax (M4 mAChR; cAMP assay) [%],further results
CCOC(=O)N1CC2(CC[C@@H](N3CCN(c4cc(F)cnc4-c4cccc5cn(C)nc45)CC3)C2)C1 [Compound A66],–,EC50 ([1]; FLIPR calcium): > 10 µM
CCOC(=O)N1CC2(CC[C@@H](N3CCN(c4cc(F)cnc4-c4ccc(=O)n(C(C)C)c4)CC3)C2)C1 [Compound A149],–,EC50 ([1]; FLIPR): > 10 µM
CCOC(=O)N1CC2(CC[C@@H](N3CCN(c4cc(F)cnc4-c4ccccc4C(=O)NC)CC3)C2)C1 [Compound A151],–,EC50 ([1]; FLIPR): > 10 µM
CCOC(=O)N1CC2(CC[C@@H](N3CCN(c4cc(F)cnc4-c4c[nH]c(=O)[nH]c4=O)CC3)C2)C1 [Compound A211],80 to 100,–
CCOC(=O)N1CC2(CC[C@@H](N3CCN(c4cc(Cl)cnc4-c4cscn4)CC3)C2)C1 [Compound A212],80 to 100,–
CCOC(=O)N1CC2(CC[C@@H](N3CCN(c4cc(F)cnc4-n4cnnc4)CC3)C2)C1 [Compound A260],80 to 100,–
CCOC(=O)N1CC2(CC[C@@H](N3CCN(c4cc(F)cnc4OC4(C)CCOCC4)CC3)C2)C1 [Compound A261],80 to 100,–
CCOC(=O)N1CC2(CC[C@@H](N3CCN(c4cc(Cl)cnc4-n4nccn4)CC3)C2)C1 [Compound A262],80 to 100,–
CCOC(=O)N1CC2(CC[C@@H](N3CCN(c4cc(Cl)cnc4Br)CC3)C2)C1 [Compound A263],80 to 100,–
CCOC(=O)N1CC2(CC[C@@H](N3CCN(c4cccnc4-c4nncs4)CC3)C2)C1 [Compound A264],80 to 100,–
CCOC(=O)N1CC2(CC[C@@H](N3CCN(c4cc(Cl)cnc4-c4ncccc4F)CC3)C2)C1 [Compound A268],80 to 100,–
CCOC(=O)N1CC2(CC[C@@H](N3CCN(c4cc(Cl)cnc4-c4ncccc4Cl)CC3)C2)C1 [Compound A269],80 to 100,–
CCOC(=O)N1CC2(CC[C@@H](N3CCN(c4cc(Cl)cnc4-c4cnc(C)nc4)CC3)C2)C1 [Compound A271],80 to 100,–
CCOC(=O)N1CC2(CC[C@@H](N3CCN(c4cc(F)cnc4C4CCC(F)(F)CC4)CC3)C2)C1 [Compound A275],80 to 100,–
CCOC(=O)N1CC2(CC[C@@H](N3CCN(c4cc(F)cnc4C4CC5(COC5)C4)CC3)C2)C1 [Compound A277],80 to 100,–
CCOC(=O)N1CC2(CC[C@@H](N3CCN(c4cccnc4C4CCOCC4)CC3)C2)C1 [Compound A278],80 to 100,–
